According to patent US20240293413A1, “COMPOUND AND METHOD FOR TREATING CHEMOTHERAPY-RELATED GASTROINTESTINAL SIDE EFFECTS” (ONQUALITY PHARMACEUTICALS CHINA LTD., priority 2021, published 2024):

What was measured:
Assay type in all cases: in vivo
[1] = tested on: Chemotherapeutic agent-caused constipation models of Balb/c mice; test: Examples 272-342 (Table 5): oral CDK inhibitor, relief of constipation caused by a chemotherapeutic agent; conditions: Example 335; Cytarabine (Ara-C) oral administration 1000 mg/kg single; CDK inhibitor oral 60 mg/kg single, 24 h before; cycle 8 days;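 further: percent of treated mice relieved versus chemotherapy group by feces reduction rate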
Text: Construction of mouse animal models: Chemotherapeutic agent-caused constipation models of Balb/c mice were constructed according to the administration mode and frequency of the chemotherapeutic agent as shown in Table 5.
(§1) Balb/c mice were fed for 1 week, and then divided into groups. The experiment was divided into a control group, a chemotherapeutic agent group, and a CDK inhibitor group, each of which comprised 10 mice, to perform the administration experiment, for which the administration dosage, mode, time and frequency were shown in Table 5. The control group: being intragastrically administered with the same solvent as that used in the CDK inhibitor group (the time was shown in Table 5), and then being injected/intragastrically administered with the same solvent as that used in the chemotherapeutic agent group (the administration mode was shown in Table 5): the chemotherapeutic agent group: being intragastrically administered with the same solvent as that used in the CDK inhibitor group (the time was shown in Table 3), and then being injected/intragastrically administered with the chemotherapeutic agent (the type, administration mode and dosage were shown in Table 5): the CDK inhibitor group: being intragastrically administered with the CDK inhibitor (the time was shown in Table 5), and then being administered with the chemotherapeutic agent (the mode and dosage were shown in Table 5).
Feces reduction rate (%)=(the control group−the chemotherapeutic agent group or the CDK inhibitor group)/the control group*100%
The feces amount of mice within 3 hours was observed and recorded every day.

[2] = tested on: diarrhea caused by a chemotherapeutic agent in Balb/c mice; test: Examples 230-271 (Table 4): oral CDK inhibitor, relief of diarrhea caused by a chemotherapeutic agent; conditions: Example 262; Cytarabine (Ara-C) oral administration 1000 mg/kg single; CDK inhibitor oral single (dosage not given), 24 h before; cycle 8 days
Text: as §1, with “4.” for “5.”, “4),” for “5),”, “4):” for “5):”, “4),” for “3),”, “4).” for “5).”
(§2) The diarrhea grading of mice was observed and recorded every day.

[3] = tested on: Chemotherapeutic agent-caused diarrhea models of Balb/c mice; test: Examples 1-229 (Table 3): oral CDK inhibitor, relief of diarrhea caused by a chemotherapeutic agent;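 further: percent of treated mice whose diarrhea grade fell below chemotherapy-group average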
[4] = tested on: diarrhea caused by a chemotherapeutic agent in Balb/c mice; test: Examples 343-381 (Table 6): oral versus intravenous CDK inhibitor, relief of diarrhea caused by a chemotherapeutic agent; conditions: Example 370, Topotecan (TP) oral administration 20 mg/kg single, 24 h before, cycle 10 days;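 further: percent of treated mice whose diarrhea grade fell below chemotherapy-group average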
Text: Balb/c mice were fed for 1 week, and then divided into groups. The experiment was divided into a control group, a chemotherapeutic agent group, and an oral administration group of a CDK inhibitor, and an intravenous injection group of a CDK inhibitor, each of which comprised 10 mice, to perform the administration experiment, for which the administration dosage, mode, time and frequency were shown in Table 6. The control group: being injected/intragastrically administered with the same solvent as that used in the CDK inhibitor group (the time was shown in Table 6), and then being injected/intragastrically administered with the same solvent as that used in the chemotherapeutic agent group (the administration mode was shown in Table 6): the chemotherapeutic agent group: being injected/intragastrically administered with the same solvent as that used in the CDK inhibitor group (the time was shown in Table 6), and then being injected/intragastrically administered with the chemotherapeutic agent (the type, administration mode and dosage were shown in Table 6): the oral administration group of the CDK inhibitor: being intragastrically administered with the CDK inhibitor (the time was shown in Table 6), and then being administered with the chemotherapeutic agent (the mode and dosage were shown in Table 6): the intravenous injection group of the CDK inhibitor: being injected with the CDK inhibitor through tail vein (the time was shown in Table 6), and then being administered with the chemotherapeutic agent (the mode and dosage were shown in Table 6).
as §2

## CN1CCC(c2c(O)cc(O)c3c(=O)cc(-c4ccccc4Cl)oc23)C1CO (stereo not shown) [Riviciclib]
[1]
  Relative remission rate: 20%
[2]
  Relative remission rate: 20%
[3]; Example 35, Fluorouracil (5-Fu) intraperitoneal injection 125 mg/kg single, CDK inhibitor oral 65 mg/kg single 8 h before, cycle 10 days
  Relative remission rate (%): 40%
[3]; Example 192, Gemcitabine (GEM) intravenous injection 120 mg/kg single, CDK inhibitor oral 180 mg/kg single, 6 h before, 8 days
  Relative remission rate (%): 70%
[3]; Example 215, Fluorouracil 100 mg/kg and irinotecan 200 mg/kg intravenous injection single, CDK inhibitor oral 65 mg/kg single, 2 h before, 10 days
  Relative remission rate (%): 50%
[4]; CDK inhibitor intravenous injection 60 mg/kg single
  Relative remission rate: 10%
[4]; CDK inhibitor oral 60 mg/kg single
  Relative remission rate: 30%
